According to ChEMBL document CHEMBL1201862, “PubChem BioAssay data set” (2004):
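Dose response: 5 concentrations. Exposure: 48 h. Format: 96-well plates. Endpoint: linear interpolation; highest concentration if not reached. GI50: concentration for 50% inhibition of growth.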 Activity calls are given as the source filed them. Rule as the data show it: active = GI50 up to about 1.1 µM and inactive = higher. Square brackets hold non-standard residues; d marks the D form. Peptide text beside a SMILES is read from it. * marks the point of attachment. Boc = CC(C)(C)OC(=O)*; Lac = C[CH](O)C(=O)O; OBn = c1ccc(CO*)cc1

Key:
Experiment in all cases: NCI anticancer screen, dose series, 48 h
A549 = test system: A549
NCI-H23 = test system: NCI-H23
SW-620 = test system: SW-620
TK-10 = test system: TK-10
MOLT-4 = test system: MOLT-4
ACHN = test system: ACHN
M14 = test system: M14
SK-OV-3 = test system: SK-OV-3
SK-MEL-2 = test system: SK-MEL-2
UACC-62 = test system: UACC-62
SF-268 = test system: SF-268
Malme-3M = test system: Malme-3M
SK-MEL-5 = test system: SK-MEL-5
OVCAR-5 = test system: OVCAR-5
OVCAR-3 = test system: OVCAR-3
NCI-H460 = test system: NCI-H460
SN12C = test system: SN12C
RXF 393 = test system: RXF 393
COLO 205 = test system: COLO 205
A498 = test system: A498

Measured: GI50

CCOC(=O)C1CCn2c(nc3c2c(=O)n(C)c(=O)n3C)S1 (stereo unspecified)
inactive: A549 > 100 µM | NCI-H23 > 100 µM | SW-620 > 100 µM | TK-10 > 100 µM | MOLT-4 > 100 µM | ACHN > 100 µM | M14 > 100 µM | SK-OV-3 > 100 µM | SK-MEL-2 > 100 µM | UACC-62 > 100 µM | SF-268 > 100 µM | Malme-3M > 100 µM | SK-MEL-5 > 100 µM | OVCAR-5 > 100 µM | OVCAR-3 > 100 µM | NCI-H460 > 100 µM | SN12C > 100 µM | RXF 393 > 100 µM

CC(OC(=O)C(Cc1ccccc1)NC(=O)C(Cc1ccccc1)NC(=O)OC(C)(C)C)C(=O)OCc1ccccc1 (stereo not drawn) (Boc-Phe-Phe-[Lac]-OBn; configuration not given here)
inactive: NCI-H23 > 100 µM | MOLT-4 > 100 µM | M14 87.1 µM | SK-OV-3 > 100 µM | SK-MEL-2 > 100 µM | UACC-62 > 10 µM | Malme-3M > 100 µM | SK-MEL-5 > 100 µM | OVCAR-5 > 100 µM | OVCAR-3 > 100 µM | NCI-H460 > 100 µM | COLO 205 > 100 µM | SN12C > 100 µM | RXF 393 > 100 µM

CC[C@H]1CC(=O)c2c(cc3c(c2O)C(=O)c2ccccc2C3=O)[C@@]1(C#N)C(=O)OC(C)(C)C
inactive: A549 3.27 µM | NCI-H23 3.24 µM | SW-620 3.65 µM | TK-10 4.78 µM | MOLT-4 2.33 µM | ACHN 3.31 µM | M14 3.65 µM | SK-OV-3 3.65 µM | SK-MEL-2 2.17 µM | UACC-62 4.35 µM | SF-268 5.36 µM | Malme-3M 4.92 µM | SK-MEL-5 1.9 µM | OVCAR-5 10.3 µM | OVCAR-3 2.81 µM | NCI-H460 2.7 µM | COLO 205 1.96 µM | SN12C 3.97 µM | RXF 393 5.2 µM

OC1CCOc2ccccc21 (stereo unspecified)
inactive: A549 > 100 µM | NCI-H23 > 100 µM | SW-620 > 100 µM | TK-10 > 100 µM | MOLT-4 > 100 µM | ACHN > 100 µM | M14 > 100 µM | SK-OV-3 > 100 µM | SK-MEL-2 > 100 µM | UACC-62 > 100 µM | SF-268 > 100 µM | Malme-3M > 100 µM | SK-MEL-5 > 100 µM | OVCAR-5 > 100 µM | OVCAR-3 > 100 µM | NCI-H460 > 100 µM | COLO 205 > 100 µM | SN12C > 100 µM | RXF 393 > 100 µM

CCC(=O)NC(Nc1cccc(F)c1)(C(F)(F)F)C(F)(F)F
inactive: A549 > 100 µM | NCI-H23 > 100 µM | SW-620 > 100 µM | TK-10 > 100 µM | MOLT-4 57 µM | ACHN > 100 µM | M14 > 100 µM | SK-OV-3 > 100 µM | SK-MEL-2 > 100 µM | UACC-62 > 100 µM | SF-268 > 100 µM | SK-MEL-5 78.7 µM | OVCAR-5 > 100 µM | OVCAR-3 > 100 µM | NCI-H460 > 100 µM | COLO 205 > 100 µM | SN12C 37.7 µM | RXF 393 > 100 µM

COc1ccc(C(=O)NNC(=O)c2nsc3ccccc23)cc1
inactive: A549 > 100 µM | NCI-H23 > 100 µM | SW-620 > 100 µM | TK-10 > 100 µM | MOLT-4 34 µM | M14 85.7 µM | SK-MEL-2 > 100 µM | UACC-62 > 100 µM | SF-268 > 100 µM | SK-MEL-5 > 100 µM | OVCAR-5 > 100 µM | OVCAR-3 30.8 µM | COLO 205 > 100 µM | SN12C > 100 µM | RXF 393 > 100 µM

Cc1n[nH]c(CC#N)n1
inactive: A549 > 100 µM | NCI-H23 > 100 µM | SW-620 > 100 µM | TK-10 > 100 µM | MOLT-4 > 100 µM | ACHN > 100 µM | M14 > 100 µM | SK-OV-3 > 100 µM | SK-MEL-2 > 100 µM | UACC-62 > 100 µM | SF-268 > 100 µM | SK-MEL-5 > 100 µM | OVCAR-5 > 100 µM | OVCAR-3 > 100 µM | COLO 205 > 100 µM | SN12C > 100 µM | RXF 393 > 100 µM

COP(=O)(OC)C(N)Cc1c[nH]c2ccccc12 (stereo unspecified)
inactive: A549 > 100 µM | NCI-H23 > 100 µM | SW-620 > 100 µM | TK-10 > 100 µM | MOLT-4 > 100 µM | ACHN > 100 µM | M14 > 100 µM | SK-OV-3 > 100 µM | SK-MEL-2 > 100 µM | SK-MEL-5 > 100 µM | OVCAR-5 > 100 µM | OVCAR-3 > 100 µM | NCI-H460 > 100 µM | COLO 205 > 100 µM | SN12C > 100 µM | A498 > 100 µM
